One may read the IC50 as the point on the concentration scale where inhibition reaches its midpoint.

Data on 21 compounds can be found in US8633315B2, “Substituted hydroxyethyl amine compounds as beta-secretase modulators and methods of use” (Amgen Inc., priority 2007, dated 2014).

The structures appear in SMILES notation. A value given as a limit tells only on which side of the number the result lay.

One test has as its target BACE1 (Homo sapiens, UniProt P56817). The test is described as follows: In vitro enzymatic BACE FRET (fluorescence resonance energy transfer) assay. It counts as biochemical. Summed up: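 Fluorescence (ex 488 nm, […]) was read after Tris addition raised pH to neutral, ending a one-hour incubation. Reaction started with 50 nM fluorophore/quencher peptide substrate in pH 4.2 acetate (0.05 M) containing 100 uM genapol and 10% DMSO final.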

Test [1] concerns Cells stably expressing Amyloid Precursor Protein (APP). The test is described as follows: In vitro BACE cell-based assay (HEK cell assay): Aβ40 in conditioned medium by sandwich ELISA. Particulars: Aβ40 in conditioned medium after 24 h incubation. Summed up: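 Secreted Aβ40 was quantified by time-resolved fluorescence sandwich ELISA, capturing with pAb40 for 3 h at 4 °C and detecting with biotinylated 6E10 for 2 h at 4 °C. Media came from APP-expressing cells exposed 24 h to compounds (10-point series from 100 or 10 μM, 0.1% DMSO); IC50 derived from percent of control.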
(In an ELISA, binding on a coated surface is turned into a signal by an enzyme label.)

Chain of BACE1 (P56817 46-501, species assumed): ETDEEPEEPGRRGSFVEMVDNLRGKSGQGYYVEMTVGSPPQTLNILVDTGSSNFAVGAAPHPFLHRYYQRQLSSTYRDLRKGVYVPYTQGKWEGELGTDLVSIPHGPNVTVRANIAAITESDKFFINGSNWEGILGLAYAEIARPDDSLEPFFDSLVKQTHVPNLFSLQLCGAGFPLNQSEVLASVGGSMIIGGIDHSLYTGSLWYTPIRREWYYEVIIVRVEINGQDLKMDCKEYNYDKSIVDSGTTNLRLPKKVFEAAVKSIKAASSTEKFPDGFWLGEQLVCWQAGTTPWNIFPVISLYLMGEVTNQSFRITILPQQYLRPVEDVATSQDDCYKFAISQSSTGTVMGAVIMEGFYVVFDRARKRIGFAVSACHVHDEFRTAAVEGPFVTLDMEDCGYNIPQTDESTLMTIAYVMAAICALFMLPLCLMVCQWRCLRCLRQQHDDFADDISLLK

As to `C=CC[C@H](NC(=O)OCc1cncs1)[C@H](O)CN[C@H]1CC2(CCC2)Oc2ncc(CC(C)(C)C)cc21` [Example 105, 1,3-thiazol-5-ylmethyl ((1S)-1-((1R)-2-(((4′S)-6′-(2,2-dimethylpropyl)-3′,4′-dihydrospiro[cyclobutane-1,2′-pyrano[2,3-b]pyridin]-4′-yl)amino)-1-hydroxyethyl)-3-buten-1-yl)carbamate], the IC50 amounted to 0.396 µM at BACE1 and 1.16 µM in test [1] (Homo sapiens, HEK293, 24 h).
In the case of `CC=CC[C@H](NC(C)=O)[C@H](O)CN[C@H]1CC2(CC(F)C2)Oc2ncc(CC(C)(C)C)cc21` (stereo partly drawn) [Example 109, N-((1S)-1-((1R)-2-(((1s,3S,4′S)-6′-(2,2-dimethylpropyl)-3-fluoro-3′,4′-dihydrospiro[cyclobutane-1,2′-pyrano[2,3-b]pyridin]-4′-yl)amino)-1-hydroxyethyl)-3-penten-1-yl)acetamide], the figures for the IC50 (on BACE1; in test [1]) were 0.037 µM and 0.062 µM, respectively.
The corresponding values for `CC=CC[C@H](NC(=O)COC)[C@H](O)CN[C@H]1CC2(CC(F)C2)Oc2ncc(CC(C)(C)C)cc21` (stereo partly drawn) [Example 110, N-((1S)-1-((1R)-2-(((1s,3S,4′S)-6′-(2,2-dimethylpropyl)-3-fluoro-3′,4′-dihydrospiro[cyclobutane-1,2′-pyrano[2,3-b]pyridin]-4′-yl)amino)-1-hydroxyethyl)-3-penten-1-yl)-2-(methyloxy)acetamide] are 0.04 µM and 0.293 µM.
Turning to `C=CCC(NC(=O)CF)C(O)CNC1CC2(CC(O)C2)Oc2ncc(CC(C)(C)C)cc21` [Example 111, N-((1S)-1-((1R)-2-(((1s,3S,4′S)-6′-(2,2-dimethylpropyl)-3-hydroxy-3′,4′-dihydrospiro[cyclobutane-1,2′-pyrano[2,3-b]pyridin]-4′-yl)amino)-1-hydroxyethyl)-3-buten-1-yl)-2-fluoroacetamide], the IC50 came to 0.02 µM on BACE1 and 0.065 µM in test [1] (Homo sapiens, HEK293).
As for `C=CCC(NC(=O)C1CCC(=O)O1)C(O)CNC1CC2(CC(O)C2)Oc2ncc(CC(C)(C)C)cc21` [Example 112, (2S)-N-((1S)-1-((1R)-2-(((1s,3S,4′S)-6′-(2,2-dimethylpropyl)-3-hydroxy-3′,4′-dihydrospiro[cyclobutane-1,2′-pyrano[2,3-b]pyridin]-4′-yl)amino)-1-hydroxyethyl)-3-buten-1-yl)-5-oxotetrahydro-2-furancarboxamide], the IC50 at BACE1 is 0.002 µM; in test [1] (Homo sapiens, HEK293, 24 h) it was 0.028 µM.
For the compound `C=CCC(NC(C)=O)C(O)CNC1CC2(CC(O)C2)Oc2ccc(CC(C)(C)C)cc21` [Example 115, N-((1S)-1-((1R)-2-(((2s,3′S,4S)-6-(2,2-dimethylpropyl)-3′-hydroxy-3,4-dihydrospiro[chromene-2,1′-cyclobutan]-4-yl)amino)-1-hydroxyethyl)-3-buten-1-yl)acetamide], the values for the IC50 (at BACE1; in test [1]) were 0.335 µM and 0.513 µM, respectively.
The like results for `C=CCC(NC(C)=O)C(O)CNC1CC2(CC(O)C2)Oc2ccc(CC(C)(C)C)cc21` [Example 116, N-((1S)-1-((1R)-2-(((2r,3′R,4S)-6-(2,2-dimethylpropyl)-3′-hydroxy-3,4-dihydrospiro[chromene-2,1′-cyclobutan]-4-yl)amino)-1-hydroxyethyl)-3-buten-1-yl)acetamide] were, in that order, 0.015 µM and 0.015 µM.
For the compound `C=CCC(NC(C)=O)C(O)CNC1CC2(CC(O)C2)Oc2ccc(Br)cc21` [Example 117, N-((1S)-1-((1R)-2-(((2r,3′R,4S)-6-bromo-3′-hydroxy-3,4-dihydrospiro[chromene-2,1′-cyclobutan]-4-yl)amino)-1-hydroxyethyl)-3-buten-1-yl)acetamide], the IC50 on BACE1 is 0.419 µM; in test [1], 1.29 µM.
The corresponding values for `C=CCC(NC(C)=O)C(O)CNC1CC2(CC(O)C2)Oc2ccc(Br)cc21` [Example 118, N-((1S)-1-((1R)-2-(((2s,3′S,4S)-6-bromo-3′-hydroxy-3,4-dihydrospiro[chromene-2,1′-cyclobutan]-4-yl)amino)-1-hydroxyethyl)-3-buten-1-yl)acetamide] are 6.06 µM and not below 10 µM.
For `C=CCC(NC(=O)C1CCC(=O)O1)C(O)CNC1CC2(CCC2)Oc2cnc(C(F)(F)F)cc21` [Example 119, (S)-N-((2R,3S)-1-((S)-2,2-spirocyclobutyl-6-(trifluoromethyl)-3,4-dihydro-2H-pyrano[2,3-c]pyridin-4-ylamino)-2-hydroxyhex-5-en-3-yl)-5-oxo-tetrahydrofuran-2-carboxamide], the IC50 at BACE1 is 9.3 µM; in test [1] (Homo sapiens, HEK293, 24 h), not below 10 µM.
Regarding `C=CC[C@H](NC(C)=O)[C@H](O)CN[C@H]1CC2(CCC2)Oc2ncc(CC(C)(F)F)cc21` [Example 120, N-((1S)-1-((1R)-2-(((4′S)-6′-(2,2-difluoropropyl)-3′,4′-dihydrospiro[cyclobutane-1,2′-pyrano[2,3-b]pyridin]-4′-yl)amino)-1-hydroxyethyl)-3-buten-1-yl)acetamide], the IC50 was 0.194 µM at BACE1 and 0.064 µM in test [1] (Homo sapiens, HEK293, 24 h).
`C=CC[C@H](NC(=O)COC)[C@H](O)CN[C@H]1CC2(CCC2)Oc2ncc(CC(C)(F)F)cc21` [Example 121, N-((1S)-1-((1R)-2-(((4′S)-6′-(2,2-difluoropropyl)-3′,4′-dihydrospiro[cyclobutane-1,2′-pyrano[2,3-b]pyridin]-4′-yl)amino)-1-hydroxyethyl)-3-buten-1-yl)-2-(methyloxy)acetamide]: the IC50 at BACE1 amounted to 0.225 µM; in test [1] (Homo sapiens, HEK293, 24 h), 0.226 µM.
The corresponding values for `C=CC[C@H](NC(C)=O)[C@H](O)CN[C@H]1CC2(CCC2)Oc2ncc(C[C@@H](C)C(F)(F)F)cc21` [Example 125, N-((1S)-1-((1R)-1-hydroxy-2-(((4′S)-6′-((2R)-3,3,3-trifluoro-2-methylpropyl)-3′,4′-dihydrospiro[cyclobutane-1,2′-pyrano[2,3-b]pyridin]-4′-yl)amino)ethyl)-3-buten-1-yl)acetamide] are 0.199 µM and 0.122 µM.
Take `C=CC[C@H](NC(=O)COC)[C@H](O)CN[C@H]1CC2(CCC2)Oc2nc(F)c(CC(C)C)cc21` [Example 126, N-((1S)-1-((1R)-2-(((4′S)-7′-fluoro-6′-(2-methylpropyl)-3′,4′-dihydrospiro[cyclobutane-1,2′-pyrano[2,3-b]pyridin]-4′-yl)amino)-1-hydroxyethyl)-3-buten-1-yl)-2-(methyloxy)acetamide]: the IC50 on BACE1 turned out to be 0.316 µM; in test [1] (Homo sapiens, HEK293, 24 h), 0.211 µM.
With `C=CC[C@H](NC(=O)[C@@H](C)OC)[C@H](O)CN[C@H]1CC2(CCC2)Oc2nc(F)c(CC(C)C)cc21` [Example 127, (2R)-N-((1S)-1-((1R)-2-(((4′S)-7′-fluoro-6′-(2-methylpropyl)-3′,4′-dihydrospiro[cyclobutane-1,2′-pyrano[2,3-b]pyridin]-4′-yl)amino)-1-hydroxyethyl)-3-buten-1-yl)-2-(methyloxy)propanamide], the IC50 on BACE1 is 0.445 µM; in test [1] (Homo sapiens, HEK293, 24 h) it was 0.207 µM.
The like results for `C=CC[C@H](NC(=O)c1cccs1)[C@H](O)CN[C@H]1CC2(CCC2)Oc2ncc(CC(C)(C)C)cc21` [Example 128, N-((1S)-1-((1R)-2-(((4′S)-6′-(2,2-dimethylpropyl)-3′,4′-dihydrospiro[cyclobutane-1,2′-pyrano[2,3-b]pyridin]-4′-yl)amino)-1-hydroxyethyl)-3-buten-1-yl)-2-thiophenecarboxamide] were, in that order, 0.169 µM and 1.32 µM.
Consider `C=CC[C@H](NC(=O)c1cocn1)[C@H](O)CN[C@H]1CC2(CCC2)Oc2ncc(CC(C)(C)C)cc21` [Example 129, N-((1S)-1-((1R)-2-(((4′S)-6′-(2,2-dimethylpropyl)-3′,4′-dihydrospiro[cyclobutane-1,2′-pyrano[2,3-b]pyridin]-4′-yl)amino)-1-hydroxyethyl)-3-buten-1-yl)-1,3-oxazole-4-carboxamide], for which the IC50 at BACE1 worked out at 0.226 µM; in test [1] (Homo sapiens, HEK293, 24 h), 1.04 µM.
As to `C=CC[C@H](NC(=O)c1ccns1)[C@H](O)CN[C@H]1CC2(CCC2)Oc2ncc(CC(C)(C)C)cc21` [Example 130, N-((1S)-1-((1R)-2-(((4′S)-6′-(2,2-dimethylpropyl)-3′,4′-dihydrospiro[cyclobutane-1,2′-pyrano[2,3-b]pyridin]-4′-yl)amino)-1-hydroxyethyl)-3-buten-1-yl)-5-isothiazolecarboxamide], the IC50 was 0.094 µM at BACE1 and 0.19 µM in test [1] (Homo sapiens, HEK293, 24 h).
The corresponding values for `C=CC[C@H](NC(=O)c1cncn1C)[C@H](O)CN[C@H]1CC2(CCC2)Oc2ncc(CC(C)(C)C)cc21` [Example 131, N-((1S)-1-((1R)-2-(((4′S)-6′-(2,2-dimethylpropyl)-3′,4′-dihydrospiro[cyclobutane-1,2′-pyrano[2,3-b]pyridin]-4′-yl)amino)-1-hydroxyethyl)-3-buten-1-yl)-1-methyl-1H-imidazole-5-carboxamide] are 0.372 µM and 0.065 µM.
The corresponding values for `C=CC[C@H](NC(=O)c1ccn(C)n1)[C@H](O)CN[C@H]1CC2(CCC2)Oc2ncc(CC(C)(C)C)cc21` [Example 132, N-((1S)-1-((1R)-2-(((4′S)-6′-(2,2-dimethylpropyl)-3′,4′-dihydrospiro[cyclobutane-1,2′-pyrano[2,3-b]pyridin]-4′-yl)amino)-1-hydroxyethyl)-3-buten-1-yl)-1-methyl-1H-pyrazole-3-carboxamide] are 0.302 µM and 0.418 µM.
The like results for `C=CC[C@H](NC(=O)c1nccs1)[C@H](O)CN[C@H]1CC2(CCC2)Oc2ncc(CC(C)(C)C)cc21` [Example 133, N-((1S)-1-((1R)-2-(((4′S)-6′-(2,2-dimethylpropyl)-3′,4′-dihydrospiro[cyclobutane-1,2′-pyrano[2,3-b]pyridin]-4′-yl)amino)-1-hydroxyethyl)-3-buten-1-yl)-1,3-thiazole-2-carboxamide] were, in that order, 0.106 µM and 0.167 µM.
